# Publication PMC6923452, “SHBG141–161 Domain-Peptide Stimulates GPRC6A-Mediated Response in Leydig and β-Langerhans cell lines” (Scientific Reports, 2019)
# “Also recorded” adds a separate entry of the source. No end group written: not given here.
# Columns and labels:
# [1] = system: GPRC6A; set-up: method as in 2 sources, ref 5 = [5]; PMID 15576628; doi:10.1124/mol.104.007559; 5. Wellendorph P Deorphanization of GPRC6A: a promiscuous L-alpha-amino acid receptor with preference for basic amino acids Molecular Pharmacology 2005 67 3 589 97 10.1124/mol.104.007559 15576628 ||| ref 6 = [6]; PMID 20947496; doi:10.1074/jbc.M110.158063; 6. Pi M Parrill AL Quarles LD GPRC6A mediates the non-genomic effects of steroids Journal of Biological Chemistry 2010 285 51 39953 64 10.1074/jbc.M110.158063 20947496 PMC3000977; settings: cited from earlier work
# [2] = system: GPRC6A; test: Displacement of labelled ucOCN by SHBG141–161 on HEK-293 cells transfected with human Gprc6a; assay type: binding; settings: for staining signal for labelled ucOCN vs ucOCN alone: 1 nM biotinylated ucOCN, 1 h room temperature, binding buffer pH 7.4, streptavidin-FITC, image analysis, mean of 3 independent experiments
# Method: The binding of SHBG141–161 to GPRC6A was assessed by displacement experiments as previously described. To this aim, HEK-293 cells were transfected with human Gprc6a gene (Fig. 2C-I,II). The efficiency of the procedure was evaluated by real-time PCR, allowing the identification of a specific signal for Gprc6a gene only in transfected cells. Accordingly, a specific membrane signal was observed by immunostaining only in transfected cells. On these bases, HEK-293 cells transfected with Gprc6a gene were incubated with 1 nM labelled ucOCN and SHBG141–161 at the concentration of 0, 10 nM (10×) and 100 nM (100×) (Fig. 2D-I,II).
# Human embryonic kidney (HEK)-293T cells (passage number 11 to 15) were obtained from the American Type Culture Collection (ATCC®-LGC Standards Sesto San Giovanni, MI, Italy) and cultivated in DMEM [ATCC®; RRID 30–2002) and supplemented with 10% fetal bovine serum (Euroclone, Milano, Italy; RRID: ECS0180L) and 1%antibiotic/antimycotic mixture in a humidified incubator at 37 °C with 5% CO2. Expression vector containing wild-type (WT) human GPRC6A cDNA (OriGene Technologies, Inc) was used according to manufacturer’s instruction. Briefly, cultured HEK- 293 T cells at 70% of confluence were transfected by FuGENE 6 (Roche Diagnostics) with 1 μg/well of GPRC6A-pcDNA and maintained for 48 hours, followed by overnight starving in serum-free condition to achieve quiescence. HEK-293T cells transfected with empty vector were used as negative controls. Starved cells were fixed in 1% paraformaldehyde and used for binding assessment by incubation for 1 h at room temperature with biotinylated ucOCN, with or without SHBG141–161 in ice-cold-binding buffer (50 mM Tris-HCl [pH 7.4], 10 mM MgCl2, 0.1 mM EDTA, and 0.1% BSA) according to the different experimental conditions used. After extensive washing in cold PBS, samples were incubated with streptavidin-Fluorescein isothiocyanate (FITC) (dilution 1:200; Sigma-Aldrich; RRID: S3762). Evaluation of GPRC6A expression by immunofluorescence was performed as described for β-TC6 (see below). Computer assisted image analysis was performed by the ImageJ image analysis software, powered by routines specifically developed by our group as previously described[43],[44]. […]
# [3] = system: MA-10 cells; test: Testosterone (T) release from Leydig MA-10 cells (GPRC6A-mediated); assay type: cell-based, Mouse; settings: for T release vs basal: 48 hours; for agonist activity (T release) after GPRC6A blockade: pre-incubation with anti-GPRC6A polyclonal antibodies 20 mg/mL, 30 minutes at 37 °C
# Method: Human ucOCN was obtained from chemical decarboxylation of cxOCN, purchased from Bachem AG (Bachem, Bubendorf, Switzerland), as previously described. For displacement experiments, an aliquot ucOCN underwent chemical biotinylation as previously described[9],[41]. Unliganded human SHBG was purchased by […], Belgium). Human chorionic gonadotropin Gonasi was purchased by IBSA Farmaceutici Srl (Italy). Mouse Leydig-carcinoma cell line MA-10 (passage number 3 to 8; ATCC®; RRID: CRL-1573) were cultured on 0,1% gelatin/PBS-coated plasticware according to the manufacturer's instructions and maintained in DMEM:F12 Medium (ATCC®; RRID: 30-2006; pH 7,4) supplemented with additional 20 mM HEPES and horse serum to a final concentration of 15%. For immunofluorescence experiments, cells were let attach on 0,1% gelatin/PBS-coated round-coverslips (ø 13 mm, Menzel-Gläser-VWR International Srl, Milan, Italy) and then washed and fixed with 4% paraformaldehyde/PBS solution at room temperature for 15 min. After membrane permeabilization with 1% Triton X/PBS solution for 10 min at room temperature, cells were saturated with 5% bovine serum albumin/5% normal donkey serum/PBS solution for 1 hour and then incubated with rabbit-polyclonal anti-mouse GPRC6A IgG (dilution 1:200; Santa Cruz Biotechnology Inc. Heidelberg Germany; RRID: sc-67302,) and goat-polyclonal anti-human INSL3 IgG (dilution 1:200; Santa Cruz Biotechnology Inc; RRID: sc-48550) at 4 °C overnight. After extensive washing, primary immunoreaction was detected by appropriate secondary reagent, respectively: biotin conjugated-anti rabbit IgG (dilution 1:100; Vector Laboratories, Peterborough, UK; RRID: BA-1000) followed by Streptavidin […], (dilution 1:100; GeneTex/Prodotti Gianni, Milano, Italy; RRID: GTX85907) and FITC conjugated-anti goat IgG (dilution 1:100; Abcam, Milan, Italy; RRID: ab6737). Samples were then counterstained with 4',6-diamidino-2-phenylindole (DAPI), mounted with anti-fade buffer and then analyzed with Video-Confocal (VICO) fluorescence microscope (Nikon, Firenze, Italy). […] RRID: KGE010) according to manufacturer's instructions. Receptor blockade experiments were performed by pre-incubating cultured cells with anti-GPRC6A polyclonal antibodies (final concentration of […]; Santa Cruz Biotechnology Inc; RRID: sc-67302) for 30 minutes at 37 °C as previously described.
# [4] = system: β-TC6 cells; test: Insulin release from Langerhans β-TC6 cells (GPRC6A-mediated); assay type: cell-based, Mouse; settings: for insulin release vs basal: 2 hours at 37 °C in 3 mM glucose/HBSS; for agonist activity (insulin release) after GPRC6A blockade: pre-incubation with anti-GPRC6A polyclonal antibodies 20 mg/mL, 30 minutes at 37 °C
# [5] = Far-UV circular dichroism; assay type: physicochemical; settings: 25 °C, PBS (20 mM sodium phosphate, pH 7.4, 0.1 M NaCl), 70 μg/ml
# Method: The conformational properties of SHBG141–161 were investigated by far-UV circular dichroism (CD) on a Jasco J-710 spectropolarimeter, equipped with a Peltier temperature control system. The molar concentration of the peptide was determined spectrophotometrically by recording the absorbace at 257 nm, using an absorptivity value for phenylalanine of 200 M-1·cm-1. CD spectra were recorded at 25 °C in a 1-mm pathlength quartz cell at a scan-speed of 10 nm/min, with a response time of 16 sec, and resulted from the average of two accumulations after baseline subtraction. CD signal was expressed as the mean residue ellipticity (θ) = θobs·MRW/(10·l·c), where θobs is the observed signal in degrees, MRW is the protein mean residue weight, l is the cuvette pathlength in cm, and c is the protein concentration in g/ml.
# [6] = SHBG141–161 concentrations greater than 10^−9 M, preliminary experiments, data not shown
compound,measurement,setting,value
N=C(N)NCCC[C@H](N)C(=O)O [L arginine],activation of GPRC6A,[1],activated
NCCCC[C@H](N)C(=O)O [L-lysine],activation of GPRC6A,[1],activated
"C[C@]12CC[C@H]3[C@@H](CCC4=CC(=O)CC[C@@]43C)[C@@H]1CC[C@@H]2O [T, testosterone]",non-genomic action mediated by GPRC6A,[1],mediator of non-genomic action of T
IALGGLLFPASNLRLPLVPAL [SHBG141–161],competition with ucOCN for binding to GPRC6A (overall result),"[2]; 0, 10 nM and 100 nM SHBG141–161, 1 nM labelled ucOCN",progressive reduction of the signal for labelled ucOCN; also recorded: compete with ucOCN for the binding to GPRC6A; also recorded: partial competition activity
same,staining signal for labelled ucOCN vs ucOCN alone,[2]; SHBG141–161 10 nM (10×),significant reduction of the staining signal for ucOCN
same,staining signal for labelled ucOCN vs ucOCN alone,[2]; SHBG141–161 100 nM (100×),significant reduction of the staining signal for ucOCN
same,T release vs basal,"[3]; SHBG141–161, particularly 10^−13 to 10^−11M, five independent experiments",increase of T release
same,T release at high concentration,[3]; [6],not effective
same,agonist activity (T release) after GPRC6A blockade,[3],completely abolished the agonist activity
same,insulin release vs basal,"[4]; SHBG141–161 10^−13 to 10^−10 M, five independent experiments",significant increased insulin levels in culture supernatants
same,insulin release at high concentration,[4]; [6],not effective
same,agonist activity (insulin release) after GPRC6A blockade,[4],completely abolished the agonist activity
same,conformation by far-UV CD,[5],random or non-regular conformation
same,far-UV CD minimum,[5],200 nm
calcium,activation of GPRC6A,[1],activated
magnesium,activation of GPRC6A,[1],activated
"ucOCN: Human ucOCN was obtained from chemical decarboxylation of cxOCN, purchased from Bachem AG (YLYQWLGAPVPYPDPLEPRREVCELNPDCDELADHIGFQEAYRRFYGPV; ends and bridges not checked; also: undercarboxylated by chemical decarboxylation of carboxylated OCN; UniProt P02818 52-100, looked up)","membrane signal of labelled ucOCN alone, transfected cells","[2]; 1 nM labelled ucOCN, HEK-293 + GPRC6A",clear membrane signal associated with GPRC6A expression
same,"staining of labelled ucOCN, non-transfected cells","[2]; 1 nM labelled ucOCN, HEK-293 without GPRC6A",absence of significant staining in non-transfected cells
same,agonist activity (T release) after GPRC6A blockade,[3],completely abolished the agonist activity
same,T release vs basal,"[3]; ucOCN 0,5–2 nM",progressive and significant increase of T release
same,agonist activity (insulin release) after GPRC6A blockade,[4],completely abolished the agonist activity
same,insulin release vs basal,"[4]; ucOCN 0,5–2 nM",significant and dose dependent increase of insulin release
zinc,activation of GPRC6A,[1],activated
